In PubChem BioAssay (NCI):
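Exposure lasted 48 hours, with cells grown in 96-well plates and compounds tested at five concentrations. The concentration for 50% growth inhibition is given as GI50. Definition used: TGI = concentration required for complete inhibition of growth.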

Columns and labels:
Assay in all cases: inhibition of tumour cell growth, NCI panel, 48 h
SK-OV-3 ovarian = system: SK-OV-3 ovarian
KM12 colon = system: KM12 colon
SF-268 CNS = system: SF-268 CNS
SR leukemia = system: SR leukemia
SK-MEL-2 melanoma = system: SK-MEL-2 melanoma
UACC-62 melanoma = system: UACC-62 melanoma
RXF 393 renal = system: RXF 393 renal
CAKI-1 renal = system: CAKI-1 renal
MDA-MB-231 breast = system: MDA-MB-231 breast
TK-10 renal = system: TK-10 renal
T-47D breast = system: T-47D breast
HCC-2998 colon = system: HCC-2998 colon
NCI/ADR-RES ovarian = system: NCI/ADR-RES ovarian
EKVX NSCLC = system: EKVX NSCLC
A498 renal = system: A498 renal
IGROV1 ovarian = system: IGROV1 ovarian
M14 melanoma = system: M14 melanoma
PC-3 prostate = system: PC-3 prostate
NCI-H23 lung = system: NCI-H23 lung
SF-539 CNS = system: SF-539 CNS
MALME-3M melanoma = system: MALME-3M melanoma
COLO 205 colon = system: COLO 205 colon
HT29 colon = system: HT29 colon
NCI-H522 lung = system: NCI-H522 lung
SNB-75 CNS = system: SNB-75 CNS
SN12C renal = system: SN12C renal
SK-MEL-5 melanoma = system: SK-MEL-5 melanoma
HS 578T breast = system: HS 578T breast
HL-60(TB) leukemia = system: HL-60(TB) leukemia
UACC-257 melanoma = system: UACC-257 melanoma
MDA-MB-435 = system: MDA-MB-435
OVCAR-5 ovarian = system: OVCAR-5 ovarian
HOP-92 NSCLC = system: HOP-92 NSCLC
UO-31 renal = system: UO-31 renal
HCT-15 colon = system: HCT-15 colon
LOX IMVI melanoma = system: LOX IMVI melanoma
A549 NSCLC = system: A549 NSCLC
OVCAR-8 ovarian = system: OVCAR-8 ovarian
MOLT-4 leukemia = system: MOLT-4 leukemia
SW-620 colon = system: SW-620 colon
MCF7 breast = system: MCF7 breast
SNB-19 CNS = system: SNB-19 CNS
U251 CNS = system: U251 CNS
HCT-116 colon = system: HCT-116 colon
BT-549 breast = system: BT-549 breast
CCRF-CEM leukemia = system: CCRF-CEM leukemia
NCI-H460 lung = system: NCI-H460 lung
786-0 renal = system: 786-0 renal
SK-MEL-28 melanoma = system: SK-MEL-28 melanoma
ACHN renal = system: ACHN renal
HOP-62 NSCLC = system: HOP-62 NSCLC
SF-295 CNS = system: SF-295 CNS
NCI-H226 lung = system: NCI-H226 lung
RPMI-8226 leukemia = system: RPMI-8226 leukemia
DU-145 prostate = system: DU-145 prostate
OVCAR-4 ovarian = system: OVCAR-4 ovarian

## CCCCCCCCNC(=O)c1ccc(Cn2c(CCCC)nc3c(N)nc4ccccc4c32)cc1
SK-OV-3 ovarian
  GI50: 2640 nM
  TGI: 7470 nM
KM12 colon
  GI50: 2490 nM
  TGI: 6520 nM
SF-268 CNS
  GI50: 2010 nM
  TGI: 4630 nM
SR leukemia
  GI50: 1580 nM
  TGI: 5180 nM
SK-MEL-2 melanoma
  GI50: 1940 nM
  TGI: 3940 nM
UACC-62 melanoma
  GI50: 1690 nM
  TGI: 3290 nM
RXF 393 renal
  GI50: 1000 nM
  TGI: 2790 nM
CAKI-1 renal
  GI50: 1650 nM
  TGI: 6240 nM
MDA-MB-231 breast
  GI50: 1540 nM
  TGI: 3550 nM
TK-10 renal
  GI50: 2200 nM
  TGI: 6220 nM
T-47D breast
  GI50: 1750 nM
  TGI: 3950 nM
HCC-2998 colon
  GI50: 2220 nM
  TGI: 5390 nM
NCI/ADR-RES ovarian
  GI50: 1640 nM
  TGI: 3420 nM
EKVX NSCLC
  GI50: 2850 nM
  TGI: 17200 nM
A498 renal
  GI50: 2350 nM
  TGI: 11300 nM
IGROV1 ovarian
  GI50: 1600 nM
  TGI: 4490 nM
M14 melanoma
  GI50: 1740 nM
  TGI: 3480 nM
PC-3 prostate
  GI50: 2550 nM
  TGI: 11500 nM
NCI-H23 lung
  GI50: 2860 nM
  TGI: 12500 nM
SF-539 CNS
  GI50: 1680 nM
  TGI: 3190 nM
MALME-3M melanoma
  GI50: 1800 nM
  TGI: 3510 nM
COLO 205 colon
  GI50: 2040 nM
  TGI: 4330 nM
HT29 colon
  GI50: 2490 nM
  TGI: 7160 nM
NCI-H522 lung
  GI50: 1890 nM
  TGI: 4360 nM
SNB-75 CNS
  GI50: 1720 nM
  TGI: 4200 nM
SN12C renal
  GI50: 1920 nM
  TGI: 4890 nM
SK-MEL-5 melanoma
  GI50: 1570 nM
  TGI: 2910 nM
HS 578T breast
  GI50: 1960 nM
  TGI: 4330 nM
HL-60(TB) leukemia
  GI50: 1830 nM
  TGI: 4610 nM
UACC-257 melanoma
  GI50: 1860 nM
  TGI: 3670 nM
MDA-MB-435
  GI50: 1690 nM
  TGI: 3110 nM
OVCAR-5 ovarian
  GI50: 3350 nM
  TGI: 13800 nM
HOP-92 NSCLC
  GI50: 26.9 nM
  TGI: 838 nM
UO-31 renal
  GI50: 459 nM
  TGI: 3300 nM
HCT-15 colon
  GI50: 1700 nM
  TGI: 3870 nM
LOX IMVI melanoma
  GI50: 1420 nM
  TGI: 2820 nM
A549 NSCLC
  GI50: 3160 nM
  TGI: 12300 nM
OVCAR-8 ovarian
  GI50: 2040 nM
  TGI: 5080 nM
MOLT-4 leukemia
  GI50: 2440 nM
  TGI: 8710 nM
SW-620 colon
  GI50: 1470 nM
  TGI: 3200 nM
MCF7 breast
  GI50: 1590 nM
  TGI: 3570 nM
SNB-19 CNS
  GI50: 2800 nM
  TGI: 10200 nM
U251 CNS
  GI50: 1830 nM
  TGI: 3980 nM
HCT-116 colon
  GI50: 1080 nM
  TGI: 2470 nM
BT-549 breast
  GI50: 1910 nM
  TGI: 4140 nM
CCRF-CEM leukemia
  GI50: 1730 nM
  TGI: 4960 nM
NCI-H460 lung
  GI50: 1940 nM
  TGI: 3830 nM
786-0 renal
  GI50: 1710 nM
  TGI: 3340 nM
SK-MEL-28 melanoma
  GI50: 1630 nM
  TGI: 3050 nM
ACHN renal
  GI50: 1720 nM
  TGI: 3660 nM
HOP-62 NSCLC
  GI50: 2570 nM
  TGI: 11100 nM
SF-295 CNS
  GI50: 1590 nM
  TGI: 3190 nM
NCI-H226 lung
  GI50: 14500 nM
  TGI: 41400 nM
RPMI-8226 leukemia
  GI50: 1370 nM
  TGI: 3310 nM
DU-145 prostate
  GI50: 3500 nM
  TGI: 12100 nM
OVCAR-4 ovarian
  GI50: 1650 nM
  TGI: 3490 nM

## CCN1CCN(Cc2ccc(C(=O)Nc3nc4ccc(Oc5ccnc(C(=O)NC)c5)cc4s3)cc2C(F)(F)F)CC1
SK-OV-3 ovarian
  GI50: 7950 nM
  TGI: 32200 nM
SK-MEL-2 melanoma
  GI50: 1230 nM
  TGI: 3220 nM
RXF 393 renal
  GI50: 1480 nM
  TGI: 2950 nM
TK-10 renal
  GI50: 2650 nM
  TGI: 6830 nM
SNB-75 CNS
  GI50: 4050 nM
  TGI: 20800 nM
HOP-92 NSCLC
  GI50: 1010 nM
  TGI: 7260 nM
NCI-H226 lung
  GI50: 2030 nM
  TGI: > 100000 nM
